Like-named read-outs stand apart in the source and are kept apart here. One block for each compound: values may come before it.
Experiments:
[1] = amide bond
[2] = biological target: T1, Prostaglandin F (FP) Receptor (Homo sapiens, UniProt P43088); experiment: Ca2+ assay (FLIPR) for the GPCR prostaglandin F (FP) receptor, agonist and antagonist mode; format: cell-based
T1 construct: host or cells: Ca2+ optimized hematopoietic cell lines (rat)
In short: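 Ca2+-optimized rat hematopoietic cells carrying the receptor were loaded with Fluo-8 in HBSS/20 mM HEPES/2.5 mM probenecid and read on FLIPR. Agonist mode: 10 min compound incubation at 25 °C, % activation relative to Emax. Antagonist mode: stimulation at EC80 of the reference agonist (prostaglandin F2α for FP, 2MeSATP for P2Y1), fluorescence monitored 180 s.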

[3] = in vitro; format: in vitro ADME, human; details: human, plasma, 10 µM; for Plasma Stability 240 min hum [% remain.]: 4 h
[4] = in vitro; format: in vitro ADME, mouse; details: both, CD-1, mouse, plasma, 10 µM; for Plasma Stability 240 min mouse [% remain.]: 4 h
[5] = Metabolic stability assay, human microsomes; format: in vitro ADME; details: human, microsomes; for half-life at 10 µM: both sexes; for Metabolic Stability 60 min hum [% remain.]: both, 1 h, 10 µM
[6] = Metabolic stability assay, CD-1 mouse microsomes; format: in vitro ADME; details: CD-1, mouse, microsomes; for half-life at 10 µM: both sexes; for Metabolic Stability 60 min mouse [% remain.]: both, 1 h, 10 µM
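For Plasma Stability 240 min mouse [% remain.] in this document: sodium citrate stabilized mouse plasma, parent compound quantified by HPLC/MS/MS relative to its peak area at time zero, run in triplicate.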
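For Plasma Stability T½ [min] mouse in this document: sodium citrate stabilized mouse plasma, parent compound quantified by HPLC/MS/MS relative to its peak area at time zero, run in triplicate.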

T1 sequence (P43088 whole entry): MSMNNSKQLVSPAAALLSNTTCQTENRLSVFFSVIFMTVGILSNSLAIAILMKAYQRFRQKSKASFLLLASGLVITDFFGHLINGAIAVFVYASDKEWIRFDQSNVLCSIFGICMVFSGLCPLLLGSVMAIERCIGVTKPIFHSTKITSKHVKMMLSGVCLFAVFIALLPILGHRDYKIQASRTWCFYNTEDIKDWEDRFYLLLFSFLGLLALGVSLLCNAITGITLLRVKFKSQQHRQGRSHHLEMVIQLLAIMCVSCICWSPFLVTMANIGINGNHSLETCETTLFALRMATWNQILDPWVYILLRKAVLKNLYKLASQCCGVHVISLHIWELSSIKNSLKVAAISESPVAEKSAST

Compound: CN1CCC[C@H](NC(=O)OCc2ccccc2)C(=O)N2C[C@@H](NC(=O)OCC[Si](C)(C)C)C[C@H]2COc2cccc(c2)C1=O
- ring closure, yield of all isomers ([1]; from CN(CCC[C@H](NC(=O)OCc1ccccc1)C(=O)O)C(=O)c1cccc(OC[C@@H]2C[C@H](NC(=O)OCC[Si](C)(C)C)CN2)c1, T3P, CH2Cl2, 9.4 mM): 54%

- IC50 [2]: 0.64 µM
- inhibition at 10 µM [2]: 47%
- Plasma Stability T½ [min] hum [3]: > 240 min
- Plasma Stability 240 min hum [% remain.] [3]: 100 % remain.
- Plasma Stability T½ [min] mouse [4]: > 240 min
- Plasma Stability 240 min mouse [% remain.] [4]: 98 % remain.
- half-life at 10 µM [5]: 21 min
- Metabolic Stability 60 min hum [% remain.] [5]: 9 % remain.
- half-life at 10 µM [6]: 13 min
- Metabolic Stability 60 min mouse [% remain.] [6]: 3 % remain.
Compound: CN1CCC[C@H](NC(=O)Cc2cccc3ccccc23)C(=O)N2C[C@@H](NC(=O)Cc3ccc4ccccc4c3)C[C@H]2COc2cccc(c2)C1=O [Ex. 505, N-[(4S,6S,10S)-14-methyl-6-{[2-(2-naphthyl)acetyl]amino}-9,15-dioxo-2-oxa-8,14-diazatricyclo[14.3.1.0^4,8]icosa-1(20),16,18-trien-10-yl]-2-(1-naphthyl)acetamide]

Compound: C[C@H]1C(=O)NCCC(=O)N2C[C@H](NC(=O)c3ccccc3)C[C@H]2COc2cccc(c2)C(=O)N1C
- ring closure, yield of all isomers ([1]; from *CNC(=O)CCCOc1cc(OC)c(CN(C(=O)c2ccccc2)[C@@H]2C[C@@H](COc3cccc(C(=O)N(C)[C@@H](C)C(=O)O)c3)N(C(=O)CCN)C2)c(OC)c1, FDPP, i-Pr2NEt, DMF, 67.0 mM, 30.0 h, 7 steps): 16%

Compound: CC(C)(C)OC(=O)N[C@H]1CCCCSc2cccc(c2)OC[C@@H]2C[C@H](OCc3ccc(Br)cc3)CN2C1=O
- ring closure, yield of all isomers ([1]; from CC(C)(C)OC(=O)N[C@@H](CCCCSc1cccc(OC[C@@H]2C[C@H](OCc3ccc(Br)cc3)CN2)c1)C(=O)O, T3P, i-Pr2NEt, CH2Cl2, 2.0 mM, 25.0 °C, 4.0 h): 99%

Compound: CN1CC(=O)N2C[C@H](NC(=O)OC(C)(C)C)C[C@H]2COc2ccc(F)cc2C(=O)N(C)[C@@H](C(=O)OCc2ccccc2)CCC1=O
- ring closure, yield of all isomers ([1]; from CNCC(=O)N1C[C@H](NC(=O)OC(C)(C)C)C[C@H]1COc1ccc(F)cc1C(=O)N(C)[C@H](CCC(=O)O)C(=O)OCc1ccccc1, T3P / i-Pr2NEt, CH2Cl2, 5.08 mM): 60%

Compound: CN1CC(=O)N2C[C@H](NC(=O)OC(C)(C)C)C[C@H]2CSc2cccc(c2)C(=O)N(C)[C@H](C(=O)OCc2ccccc2)CCC1=O
- ring closure, yield of all isomers ([1]; from CNCC(=O)N1C[C@H](NC(=O)OC(C)(C)C)C[C@H]1CSc1cccc(C(=O)N(C)[C@@H](CCC(=O)O)C(=O)OCc2ccccc2)c1, T3P, i-Pr2NEt, CH2Cl2, 10.0 mM, 25.0 °C, 3.0 h): 57%

Compound: CN1CC(=O)N2C[C@@H](NC(=O)OC(C)(C)C)C[C@H]2COc2ccc(F)cc2C(=O)N(C)[C@H](C(=O)OCc2ccccc2)CCC1=O
- ring closure, yield of all isomers ([1]; from CNCC(=O)N1C[C@@H](NC(=O)OC(C)(C)C)C[C@H]1COc1ccc(F)cc1C(=O)N(C)[C@@H](CCC(=O)O)C(=O)OCc1ccccc1, FDPP, DMF, 8.44 mM, 25.0 °C, 20.0 h): 94%

Compound: CN1C(=O)c2cccc(c2)OC[C@@H]2C[C@H](NC(=O)OC(C)(C)C)CN2C(=O)COC[C@H]1C(=O)OCc1ccccc1
- ring closure, yield of all isomers ([1]; from CN(C(=O)c1cccc(OC[C@@H]2C[C@H](NC(=O)OC(C)(C)C)CN2)c1)[C@@H](COCC(=O)O)C(=O)OCc1ccccc1, FDPP, DMF, 5.2 mM): 80%

Compound: CN1CC(=O)N2CCN(C(=O)OC(C)(C)C)C[C@@H]2COc2ccc(F)cc2C(=O)N(C)[C@@H](C(=O)OCc2ccccc2)CCC1=O
- ring closure, yield of all isomers ([1]; from CNCC(=O)N1CCN(C(=O)OC(C)(C)C)C[C@@H]1COc1ccc(F)cc1C(=O)N(C)[C@H](CCC(=O)O)C(=O)OCc1ccccc1, T3P / i-Pr2NEt, CH2Cl2, 10.4 mM): 96%

Compound: CN1CCC(=O)N2C[C@H](NC(=O)OC(C)(C)C)C[C@H]2COc2ccc(F)cc2C(=O)N(C)[C@H](C(=O)OCc2ccccc2)CCC1=O
- ring closure, yield of all isomers ([1]; from CNCCC(=O)N1C[C@H](NC(=O)OC(C)(C)C)C[C@H]1COc1ccc(F)cc1C(=O)N(C)[C@@H](CCC(=O)O)C(=O)OCc1ccccc1, T3P / i-Pr2NEt, CH2Cl2, 10.6 mM): 82%

- IC50 [2]: 28 µM
- inhibition at 10 µM [2]: 38%
- Plasma Stability T½ [min] hum [3]: > 240 min
- Plasma Stability 240 min hum [% remain.] [3]: 91 % remain.
- Plasma Stability T½ [min] mouse [4]: > 240 min
- Plasma Stability 240 min mouse [% remain.] [4]: 100 % remain.
- half-life at 10 µM [5]: 27 min
- Metabolic Stability 60 min hum [% remain.] [5]: 12 % remain.
- half-life at 10 µM [6]: 30 min
- Metabolic Stability 60 min mouse [% remain.] [6]: 26 % remain.
Compound: CN1C[C@H](NC(=O)OCc2ccccc2)C(=O)N(C)CC(=O)N2C[C@@H](NC(=O)Cc3c[nH]c4ccccc34)C[C@H]2COc2cccc(c2)C1=O [Ex. 200, benzyl N-[(4S,6S,13S)-6-{[2-(1H-indol-3-yl)acetyl]amino}-11,15-dimethyl-9,12,16-trioxo-2-oxa-8,11,15-triazatricyclo[15.3.1.0^4,8]henicosa-1(21),17,19-trien-13-yl]carbamate]

- IC50 [2]: 0.52 µM
- inhibition at 10 µM [2]: 74%
- Plasma Stability T½ [min] hum [3]: > 240 min
- Plasma Stability 240 min hum [% remain.] [3]: 66 % remain.
- Plasma Stability T½ [min] mouse [4]: > 240 min
- Plasma Stability 240 min mouse [% remain.] [4]: 58 % remain.
- half-life at 10 µM [5]: 15 min
- Metabolic Stability 60 min hum [% remain.] [5]: 0 % remain.
- half-life at 10 µM [6]: 22 min
- Metabolic Stability 60 min mouse [% remain.] [6]: 0 % remain.
Compound: CN1CCC[C@H](NC(=O)OCc2ccccc2)C(=O)N2C[C@@H](NC(=O)Cc3ccc4ccccc4c3)C[C@H]2COc2cccc(c2)C1=O [Ex. 184, benzyl N-[(4S,6S,10S)-14-methyl-6-{[2-(2-naphthyl)acetyl]amino}-9,15-dioxo-2-oxa-8,14-diazatricyclo[14.3.1.0^4,8]icosa-1(20),16,18-trien-10-yl]carbamate]

From patent US9512139B2, “Conformationally constrained, fully synthetic macrocyclic compounds” (POLYPHOR AG, priority 2009, dated 2016)
